Measured values from PMC4552634, “A New Set of Chemical Starting Points with Plasmodium falciparum Transmission-Blocking Potential for Antimalarial Drug Discovery” (PLoS ONE, 2015).
Where two headings read alike, the source gives them in different places. Blank lines part the entries; values can stand above or below the compound they belong to.

What was measured:
[1] = system: HepG2 cells; experiment: Cytotoxicity in HepG2 cells (intracellular ATP, ATPlite, 48 h); format: cell-based, human; conditions: HepG2 cells; IC50 per ratio column head; unit inferred
[2] = system: luciferase reaction (BacTiter-Glo); experiment: Interference assay (inhibition of the BacTiter-Glo luciferase reaction); format: biochemical; design: concentration or dose not given beside the values; conditions: ATP interference assay
Protocol: To discard possible false-positive results, we performed an interference assay in parallel. […] […]. The ATP solution was made by dissolving ATP powder (ATP standard from the ATPlite 1 step assay kit, reference 6016731, Perkin Elmer) in culture medium. The positive control used was the Luciferase Inhibitor I Calbiochem (Merck, 119113) at 100 μM.

[3] = system: P. falciparum stage V gametocytes; experiment: Gametocytocidal ATP bioluminescence assay (single point 5 μM and 1 μM, dose-response); format: cell-based, Plasmodium falciparum; conditions: for Ratio IC50 HepG2/IC50 P. falciparum: IC50 HepG2 divided by IC50 P. falciparum gametocytes
[4] = system: P. falciparum asexual stages; conditions: asexual stages; TCAMS data; read-out: IC50 asexual; cited from earlier work
[5] = P. falciparum gametocytes, average, read-out: IC50 Pf Gametocytes average, IC50 (µM) average
[6] = sexual stages (gametocytes), dose-response, read-out: IC50 sexual

% Control luminiscence [2]: 99%
Structure (SMILES): Cc1ccc(-n2nc(-c3ccccc3)c3cc(C(=O)NCCN)sc32)cc1 [TCMDC-124776]
IC50 [1]: 7.83 µM
Ratio IC50 HepG2/IC50 P. falciparum [3]: 7
IC50 [3, 5]: 1.11 µM
IC50 [4]: 1.36 µM

% Control luminiscence [2]: 100%
Structure (SMILES): CCCOc1ccc(CCNCCCCNCCc2ccc(OCCC)c3ccccc23)c2ccccc12 [TCMDC-137952]
IC50 [1]: 2.6 µM
Ratio IC50 HepG2/IC50 P. falciparum [3]: 31
IC50 [3, 5]: 0.08 µM
IC50 [3, 6]: 0.083 µM
IC50 [4]: 0.917 µM

% Control luminiscence [2]: 100%
Structure (SMILES): COc1ccc2nc(-c3cccc(C)n3)nc(Nc3ccncc3)c2c1 [TCMDC-134670]
IC50 [1]: > 25 µM
IC50 [3, 5]: 2.51 µM
IC50 [4]: 0.669 µM

% Control luminiscence [2]: 100%
Structure (SMILES): CN(C)c1ccc2c(c1)Sc1cc(N(C)C)ccc1N2C(=O)CCCC(=O)O [TCMDC-125778]
IC50 [1]: > 25 µM
IC50 [3, 5]: > 5 µM
IC50 [4]: 0.802 µM

% Control luminiscence [2]: 97%
Structure (SMILES): COCCn1c(-c2cccc(Cl)c2)nn(-c2ccc([N+](=O)[O-])cc2C#N)c1=S [TCMDC-134719]
IC50 [1]: > 25 µM
Ratio IC50 HepG2/IC50 P. falciparum [3]: >9
IC50 [3, 5]: 2.78 µM
IC50 [3, 6]: 2.78 µM
IC50 [4]: 0.178 µM

% Control luminiscence [2]: 100%
Structure (SMILES): CCN(CC)CCCNc1nccc(N2CCc3ncnc(Nc4ccc(OCc5cccc(F)c5)c(Cl)c4)c3C2)n1 [TCMDC-135406]
IC50 [1]: 5.58 µM
Ratio IC50 HepG2/IC50 P. falciparum [3]: 8
IC50 [3, 5]: 0.72 µM
IC50 [3, 6]: 0.715 µM
IC50 [4]: 0.111 µM

% Control luminiscence [2]: 100%
Structure (SMILES): CN(C)CCCn1c(N)c(-c2nc3ccccc3[nH]2)c2nc(C#N)c(C#N)nc21 [TCMDC-123729]
IC50 [1]: 6.93 µM
Ratio IC50 HepG2/IC50 P. falciparum [3]: 35
IC50 [3, 5]: 0.2 µM
IC50 [4]: 0.591 µM

% Control luminiscence [2]: 100%
Structure (SMILES): Nc1ncc(-c2ccc3nccc(-c4ccncc4)c3c2)cc1S(=O)(=O)N1CCCCC1 [TCMDC-134265]
IC50 [1]: > 25 µM
Ratio IC50 HepG2/IC50 P. falciparum [3]: >12
IC50 [3, 5]: 2.07 µM
IC50 [3, 6]: 2.07 µM
IC50 [4]: 0.581 µM

% Control luminiscence [2]: 100%
Structure (SMILES): CC(C)(C)OC(=O)NCc1ccc(Nc2nnc(-c3ccc(OCC(=O)NCc4ccc(C(C)(C)C)cc4)c([N+](=O)[O-])c3)o2)cc1 [TCMDC-134991]
IC50 [1]: 3.15 µM
Ratio IC50 HepG2/IC50 P. falciparum [3]: 4.5
IC50 [3, 5]: 0.7 µM
IC50 [4]: 0.8 µM

% Control luminiscence [2]: 95%
Structure (SMILES): O=C(Nc1ccc(N2CCNCC2)cc1)c1ccn2ncc(-c3cccc(Cl)c3)c2n1 [TCMDC-132663]
IC50 [1]: 22.2 µM
Ratio IC50 HepG2/IC50 P. falciparum [3]: 6.35
IC50 [3, 5]: 3.5 µM
IC50 [4]: 0.922 µM

% Control luminiscence [2]: 94%
Structure (SMILES): CCCCCCCN1CC[C@@H](CCCc2ccnc3ccc(OCCN4CCNCC4)cc23)[C@@H](CC)C1 [TCMDC-139817]
IC50 [1]: 6.75 µM
Ratio IC50 HepG2/IC50 P. falciparum [3]: 12
IC50 [3, 5]: 0.57 µM
IC50 [3, 6]: 0.567 µM
IC50 [4]: 0.771 µM

% Control luminiscence [2]: 100%
Structure (SMILES): CCN(CC)CCN(Cc1ccc(-c2ccc(C(F)(F)F)cc2)cc1)C(=O)c1ccc(-c2ccc(NC(=O)OC)cc2C)cc1 [TCMDC-141558]
IC50 [1]: 5.4 µM
Ratio IC50 HepG2/IC50 P. falciparum [3]: 1.46
IC50 [3, 5]: 3.71 µM
IC50 [3, 6]: 3.71 µM
IC50 [4]: 0.929 µM

% Control luminiscence [2]: 100%
Structure (SMILES): CN1CCN(CCCNCc2cccc(Nc3nccc(Nc4ccc(Oc5ccccc5)cc4)n3)c2)CC1 [TCMDC-138616]
IC50 [1]: 5.17 µM
Ratio IC50 HepG2/IC50 P. falciparum [3]: 16
IC50 [3, 5]: 0.32 µM
IC50 [4]: 0.765 µM
